Test results as given in patent US7396672B2, “Method for the production of dinoflagellate cultures” (priority 2003, dated 2008).

Experiments:
Format in all cases: cell-based
dinoflagellates = experiment: mixed phytoplankton in natural seawater samples; settings: 2 mM mimosine
Procedure: (§1) Whether mimosine can confer an advantage in the phytoplankton community by adding mimosine directly to natural seawater samples was therefore tested. Natural seawater samples were collected from Port Shelter (eastern Hong Kong) and filtered through a 100 μm mesh to remove all zooplankton immediately before use. Mimosine was then added at 2 mM and samples were taken for estimation of the percentage of dinoflagellates and diatoms. The samples were then incubated under the same conditions as in Example 1. Within 6 days, dinoflagellates became the dominant group. The dinoflagellate population increased from 30% to 60% of the total population (FIG. 2). The diatoms, which were the dominant group in the control, decreased to 10% of the total population in 6 days (at the time of measurement) upon treatment with mimosine.

diatoms = experiment: mixed phytoplankton in natural seawater samples; settings: 2 mM mimosine, 6 days, diatoms dominant group in the control
Procedure: as §1

[1] = test system: Heterocapsa triquetra (CCMP449); experiment: cell proliferation assay, monoculture of phytoplankton; settings: 1 mM mimosine
Procedure: (§2) The effects of mimosine at low mM concentrations on pure cultures of four different groups of phytoplankton were tested. The phytoplankton tested were the Cryptophyceae Rhodomonas salina (CCMP1319), the Prymnesiophyceae Isochrysis galbana (CCMP1323), the Bacillariophyceae Cylindricus fusiformis (PCC100) and the dinoflagellate Heterocapsa triquetra (CCMP449). Cultures of phytoplankters were obtained from Bigelow Laboratory for Ocean Sciences (CCMP) or the Plymouth Culture Collection (PCC). The cultures were maintained in f/2 medium at 18° C., under photon flux of […] from fluorescent tubes (Phillips daylight) under a 14:10 hours light/dark cycle. For cell proliferation assays, exponentially growing cells were diluted ten times with fresh medium before the addition of mimosine to give cultures having a final mimosine concentration of 0.01, 0.1 and 1 mM. All chemicals were from Sigma Corporation unless otherwise stated. All growth studies were performed in triplicate. Cell counting was performed by Coulter counter and all samples were counted at least three times.

[2] = test system: Isochrysis galbana (CCMP1323); experiment: as above; settings: 8 days
Procedure: as §2

[3] = test system: Rhodomonas salina (CCMP1319); experiment: as above; settings: 8 days
Procedure: as §2

[4] = test system: Cylindricus fusiformis (PCC100); experiment: as above; settings: 8 days
Procedure: as §2

[5] = 0.01 and 0.1 mM mimosine, f/2 medium

In the case of `NC(Cn1ccc(=O)c(O)c1)C(=O)O` (stereo not drawn) [mimosine, α-amino-3-hydroxy-4-oxo-1-pyridine propanoic acid], the “time until dinoflagellates became the dominant group” value (dinoflagellates; natural seawater) is reported as no more than 6 days, the “dinoflagellate population as percentage of the total population” value (dinoflagellates; natural seawater (Port Shelter), 6 days, increased from 30%) is reported as 60% and the “diatoms as percentage of the total population” value (diatoms) is reported as 10%. The “cell number compared to control treatment” value [1] was “increased the cell number significantly”, the cell number increase ([2]; 1 mM mimosine) was “no cell number increase” and the “cell number compared to control treatment” value [2, 5] was “slightly lower numbers of cells, though not significantly so”. For the same compound, the “mean cell numbers significantly lower than those in the controls” value ([3]; 1 mM mimosine) was 75%, the “cell number compared to control treatment” value [3, 5] was “slightly lower numbers of cells, though not significantly so” and the “mean cell numbers significantly lower than those in the controls” value ([4]; 1 mM mimosine) was 25%. The “cell number compared to control treatment” value [4, 5] was “slightly lower numbers of cells, though not significantly so”.
